Data published in publication PMC3720860, “Molecular and Functional Characterization of Odorant-Binding Protein Genes in an Invasive Vector Mosquito, Aedes albopictus” (PLoS ONE, 2013).

Columns and labels:
Format in all cases: binding
AalbOBP39 [1] = biological target: T1, AalbOBP39 (Aedes albopictus, UniProt M4W733); assay: 1-NPN competitive fluorescence displacement; conditions: 20 mM sodium acetate, pH 7.4, 25 C; 25 ug/ml protein; ligand 6.4-19.2 uM; 30.4 uM 1-NPN
T1 construct: 6xHis-tag fusion, pET-22b(+), E. coli BL21 (DE3); Ni-NTA and gel filtration
T1 sequence (M4W733 19-143): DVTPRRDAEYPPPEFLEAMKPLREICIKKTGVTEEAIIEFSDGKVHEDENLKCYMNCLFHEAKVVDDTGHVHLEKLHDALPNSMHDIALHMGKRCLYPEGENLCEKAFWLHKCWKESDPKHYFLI

AalbOBP37 [2] = biological target: T2, AalbOBP37 (Aedes albopictus, UniProt M4VP05); assay: 1-NPN competitive fluorescence displacement; conditions: 20 mM sodium acetate, pH 7.4, 25 C; 25 ug/ml protein; ligand 6.4-19.2 uM; 32 uM 1-NPN
T2 construct: 6xHis-tag fusion, pET-22b(+), E. coli BL21 (DE3); Ni-NTA and gel filtration
T2 sequence (M4VP05 19-149 limits assumed): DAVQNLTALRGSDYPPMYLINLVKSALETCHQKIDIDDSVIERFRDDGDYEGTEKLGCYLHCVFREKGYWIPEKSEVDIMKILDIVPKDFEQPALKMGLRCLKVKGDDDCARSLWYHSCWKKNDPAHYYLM

AalbOBP37 [3] = biological target: T2, AalbOBP37; assay: direct fluorescence titration; conditions: 20 mM sodium acetate, pH 7.4, 25 C; 25 ug/ml protein; excitation 337 nm; reporter ligand
AalbOBP39 [4] = biological target: T1, AalbOBP39; assay: direct fluorescence titration; conditions: 20 mM sodium acetate, pH 7.4, 25 C; 25 ug/ml protein; excitation 337 nm; reporter ligand

What does the source list for `CCN(CC)C(=O)c1cccc(C)c1` [DEET]?
normalized 1-NPN fluorescence (AalbOBP39 [1]): AalbOBP39 showed relatively low affinity to DEET and 1-octen-3-ol; normalized 1-NPN fluorescence (AalbOBP37 [2]): AalbOBP37 showed high affinity to DEET and 1-octen-3-ol

How did the “normalized 1-NPN fluorescence” value (AalbOBP39 [1]) turn out when `Cc1c[nH]c2ccccc12` [skatole] was run?
Its value is “AalbOBP37 and AalbOBP39 exhibited relatively strong binding to both indole and skatole”.

What about the “normalized 1-NPN fluorescence” value (AalbOBP37 [2]) of the same compound?
The value was “AalbOBP37 and AalbOBP39 exhibited relatively strong binding to both indole and skatole”.

For `C=CC(O)CCCCC` (stereo not shown) [1-octen-3-ol], which “normalized 1-NPN fluorescence” value (AalbOBP39 [1]) is on record?
The value was “AalbOBP39 showed relatively low affinity to DEET and 1-octen-3-ol”.

And the “normalized 1-NPN fluorescence” value (AalbOBP37 [2])?
The value was “AalbOBP37 showed high affinity to DEET and 1-octen-3-ol”.

What does the source list for `c1ccc(Nc2cccc3ccccc23)cc1` [N-phenyl-1-naphthylamine]?
direct fluorescence titration (AalbOBP37 [3]): only target OBPs could bind 1-NPN, which showed increasing fluorescent intensity; direct fluorescence titration (AalbOBP39 [4]): only target OBPs could bind 1-NPN, which showed increasing fluorescent intensity

Which results are given for `c1ccc2[nH]ccc2c1` [indole]?
normalized 1-NPN fluorescence (AalbOBP39 [1]): AalbOBP37 and AalbOBP39 exhibited relatively strong binding to both indole and skatole; normalized 1-NPN fluorescence (AalbOBP37 [2]): AalbOBP37 and AalbOBP39 exhibited relatively strong binding to both indole and skatole
